Patent publication US11547697B2, “Heterocyclic compounds and uses thereof” (MILLENNIUM PHARMACEUTICALS, INC., priority 2009, dated 2023)
pIC50: −log10 of the molar value. Like-named read-outs stand apart in the source and are kept apart here.

Key:
[1] = molecular target: p110β/p85α (Homo sapiens (Human), UniProt P42338); experiment: PI 3-Kinase (human) HTRF assay, p110β/p85α; assay type: biochemical
[2] = molecular target: p110γ (Homo sapiens (Human), UniProt P48736); experiment: PI 3-Kinase (human) HTRF assay, p110γ; assay type: biochemical
[3] = molecular target: p110α/p85α (Homo sapiens (Human), UniProt P42336); experiment: PI 3-Kinase (human) HTRF assay, p110α/p85α; assay type: biochemical
[4] = system: tumor cells with a PI3Kα mutation (e.g., MDA-MB-361 and T47D); experiment: Proliferation of tumor cells with PI3Kα mutation; assay type: cell-based; settings: Homo sapiens
[5] = molecular target: recombinant mTOR (Homo sapiens (Human), UniProt P42345); experiment: mTOR inhibition assay (radiometric or LanthaScreen TR-FRET); assay type: biochemical
Protocol: The compounds described herein can be tested against recombinant mTOR (Invitrogen) in an assay containing 50 mM HEPES, pH 7.5, 1 mM EGTA, 10 mM MgCl2, 2.5 mM, 0.01% Tween, 10 pM ATP (2.5 μCi of μ-32P-ATP), and 3 μg/mL BSA. R^at recombinant PHAS-1/4EBP1 (Calbiochem; 2 mg/mL) is used as a substrate. Reactions are terminated by spotting onto nitrocellulose, which is washed with 1M NaCl/1% phosphoric acid (approximately 6 times, 5-10 minutes each). Sheets are dried and the transferred radioactivity quantitated by phosphorimaging.
For instance, one can use Invitrogen's LanthaScreen™ Kinase assay to test the inhibitors of mTOR disclosed herein. This assay is a time resolved FRET platform that measures the phosphorylation of GFP labeled 4EBP1 by mTOR kinase. The kinase reaction is performed in a white 384 well microtitre plate. The total reaction volume is 20 ul per well and the reaction buffer composition is 50 mM HEPES pH7.5, 0.01% Polysorbate 20, 1 mM EGTA, 10 mM MnCl2, and 2 mM DTT. In the first step, each well receives 2 ul of test compound in 20% dimethylsulphoxide resulting in a 2% DMSO final concentration. Next, 8 ul of mTOR diluted in reaction buffer is added per well for a 60 ng/ml final concentration. To start the reaction, 10 ul of an ATP/GFP-4EBP1 mixture (diluted in reaction buffer) is added per well for a final concentration of 10 μM ATP and 0.5 μM GFP-4EBP1. The plate is sealed and incubated for 1 hour at room temperature. […] The plate is sealed, incubated for 1 hour at room temperature, and then read on a plate reader set up for LanthaScreen™ TR-FRET. Data is analyzed and IC50s are generated using GraphPad Prism 5.

[6] = molecular target: p110δ/p85α (Homo sapiens (Human), UniProt O00329); experiment: PI 3-Kinase (human) HTRF assay, p110δ/p85α; assay type: biochemical
[7] = T47D cells, read-out: T47D proliferation
[8] = in vitro, read-out: PI3K δ IC50
[9] = in vitro, read-out: PI3K β IC50
[10] = in vitro, read-out: PI3K γ IC50
[11] = in vitro, read-out: PI3K α IC50
[12] = T47D cells, read-out: T47D proliferation IC50

Chain of p110γ (P48736 whole entry): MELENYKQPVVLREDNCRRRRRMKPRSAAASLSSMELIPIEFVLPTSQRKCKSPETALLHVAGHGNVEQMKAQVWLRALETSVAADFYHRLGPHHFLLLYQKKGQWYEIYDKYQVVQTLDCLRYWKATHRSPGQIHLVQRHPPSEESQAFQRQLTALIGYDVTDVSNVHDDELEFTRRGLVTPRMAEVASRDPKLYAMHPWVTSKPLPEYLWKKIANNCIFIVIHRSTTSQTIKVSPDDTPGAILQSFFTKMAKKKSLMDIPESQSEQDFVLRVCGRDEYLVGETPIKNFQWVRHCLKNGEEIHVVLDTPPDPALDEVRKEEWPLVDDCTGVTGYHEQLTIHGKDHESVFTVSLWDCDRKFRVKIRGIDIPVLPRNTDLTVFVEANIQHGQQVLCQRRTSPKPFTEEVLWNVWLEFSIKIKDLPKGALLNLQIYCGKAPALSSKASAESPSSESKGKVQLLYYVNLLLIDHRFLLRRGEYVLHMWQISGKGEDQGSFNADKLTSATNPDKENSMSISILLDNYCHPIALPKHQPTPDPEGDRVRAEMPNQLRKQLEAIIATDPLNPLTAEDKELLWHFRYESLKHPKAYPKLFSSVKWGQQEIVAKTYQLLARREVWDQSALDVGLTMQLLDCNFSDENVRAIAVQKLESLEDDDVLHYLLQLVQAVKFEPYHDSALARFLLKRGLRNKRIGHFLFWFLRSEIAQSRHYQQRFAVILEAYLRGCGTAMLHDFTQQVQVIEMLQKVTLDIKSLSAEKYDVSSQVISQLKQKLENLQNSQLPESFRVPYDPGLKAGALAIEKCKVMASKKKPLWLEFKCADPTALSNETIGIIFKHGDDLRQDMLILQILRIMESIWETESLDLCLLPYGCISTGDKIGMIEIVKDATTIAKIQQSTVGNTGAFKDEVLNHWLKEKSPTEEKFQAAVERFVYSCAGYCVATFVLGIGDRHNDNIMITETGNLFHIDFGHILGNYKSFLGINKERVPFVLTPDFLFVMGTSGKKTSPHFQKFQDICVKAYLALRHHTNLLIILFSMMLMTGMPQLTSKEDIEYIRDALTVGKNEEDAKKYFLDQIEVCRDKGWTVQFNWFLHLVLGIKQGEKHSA
Chain of p110α/p85α (P42336 whole entry): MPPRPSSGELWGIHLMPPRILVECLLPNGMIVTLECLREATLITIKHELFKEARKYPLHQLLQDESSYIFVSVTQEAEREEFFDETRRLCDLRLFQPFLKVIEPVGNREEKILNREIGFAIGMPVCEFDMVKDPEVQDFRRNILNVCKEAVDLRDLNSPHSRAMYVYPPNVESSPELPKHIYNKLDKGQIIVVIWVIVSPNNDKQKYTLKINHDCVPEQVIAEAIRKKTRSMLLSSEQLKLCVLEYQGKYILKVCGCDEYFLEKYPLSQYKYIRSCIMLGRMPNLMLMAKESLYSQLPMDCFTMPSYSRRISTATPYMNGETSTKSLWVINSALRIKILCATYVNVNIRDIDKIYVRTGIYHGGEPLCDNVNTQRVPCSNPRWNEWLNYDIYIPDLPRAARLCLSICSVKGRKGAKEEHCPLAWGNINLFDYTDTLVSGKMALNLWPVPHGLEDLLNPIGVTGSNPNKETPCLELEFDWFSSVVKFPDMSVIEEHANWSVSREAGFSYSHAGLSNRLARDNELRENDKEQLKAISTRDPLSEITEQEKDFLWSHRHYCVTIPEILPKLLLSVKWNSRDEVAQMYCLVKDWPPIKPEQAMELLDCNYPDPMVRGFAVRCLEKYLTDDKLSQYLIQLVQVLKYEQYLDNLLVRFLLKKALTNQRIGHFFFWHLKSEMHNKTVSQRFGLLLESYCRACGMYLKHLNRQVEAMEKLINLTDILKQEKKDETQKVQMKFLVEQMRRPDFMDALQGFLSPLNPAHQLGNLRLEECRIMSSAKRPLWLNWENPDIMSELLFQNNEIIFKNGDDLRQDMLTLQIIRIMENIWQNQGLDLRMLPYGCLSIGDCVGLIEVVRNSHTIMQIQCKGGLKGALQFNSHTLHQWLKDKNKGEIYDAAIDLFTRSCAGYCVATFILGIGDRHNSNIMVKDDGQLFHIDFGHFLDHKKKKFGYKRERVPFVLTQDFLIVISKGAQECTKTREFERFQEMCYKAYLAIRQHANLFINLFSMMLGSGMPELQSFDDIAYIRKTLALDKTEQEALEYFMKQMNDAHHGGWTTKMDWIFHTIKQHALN
Chain of p110α/p85α (P27986 whole entry partner): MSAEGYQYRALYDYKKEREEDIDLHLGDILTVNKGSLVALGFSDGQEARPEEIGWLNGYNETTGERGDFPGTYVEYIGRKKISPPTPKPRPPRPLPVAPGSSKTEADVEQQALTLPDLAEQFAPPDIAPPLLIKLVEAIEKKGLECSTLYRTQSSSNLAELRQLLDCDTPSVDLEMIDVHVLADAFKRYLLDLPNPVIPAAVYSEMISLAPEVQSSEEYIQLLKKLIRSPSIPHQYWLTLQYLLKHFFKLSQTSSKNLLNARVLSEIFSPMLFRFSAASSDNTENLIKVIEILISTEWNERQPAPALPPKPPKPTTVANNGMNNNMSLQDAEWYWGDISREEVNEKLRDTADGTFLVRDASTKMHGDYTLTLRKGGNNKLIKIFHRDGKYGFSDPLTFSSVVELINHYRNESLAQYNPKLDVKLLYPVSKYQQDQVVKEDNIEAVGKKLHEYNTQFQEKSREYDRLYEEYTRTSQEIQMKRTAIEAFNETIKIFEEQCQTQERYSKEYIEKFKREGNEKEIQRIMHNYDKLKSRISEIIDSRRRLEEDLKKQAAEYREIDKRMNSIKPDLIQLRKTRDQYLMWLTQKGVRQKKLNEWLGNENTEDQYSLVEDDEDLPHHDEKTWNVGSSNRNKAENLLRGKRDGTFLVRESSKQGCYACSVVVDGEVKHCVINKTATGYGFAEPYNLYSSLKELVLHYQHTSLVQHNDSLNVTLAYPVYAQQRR
Chain of recombinant mTOR (P42345 1360-2549): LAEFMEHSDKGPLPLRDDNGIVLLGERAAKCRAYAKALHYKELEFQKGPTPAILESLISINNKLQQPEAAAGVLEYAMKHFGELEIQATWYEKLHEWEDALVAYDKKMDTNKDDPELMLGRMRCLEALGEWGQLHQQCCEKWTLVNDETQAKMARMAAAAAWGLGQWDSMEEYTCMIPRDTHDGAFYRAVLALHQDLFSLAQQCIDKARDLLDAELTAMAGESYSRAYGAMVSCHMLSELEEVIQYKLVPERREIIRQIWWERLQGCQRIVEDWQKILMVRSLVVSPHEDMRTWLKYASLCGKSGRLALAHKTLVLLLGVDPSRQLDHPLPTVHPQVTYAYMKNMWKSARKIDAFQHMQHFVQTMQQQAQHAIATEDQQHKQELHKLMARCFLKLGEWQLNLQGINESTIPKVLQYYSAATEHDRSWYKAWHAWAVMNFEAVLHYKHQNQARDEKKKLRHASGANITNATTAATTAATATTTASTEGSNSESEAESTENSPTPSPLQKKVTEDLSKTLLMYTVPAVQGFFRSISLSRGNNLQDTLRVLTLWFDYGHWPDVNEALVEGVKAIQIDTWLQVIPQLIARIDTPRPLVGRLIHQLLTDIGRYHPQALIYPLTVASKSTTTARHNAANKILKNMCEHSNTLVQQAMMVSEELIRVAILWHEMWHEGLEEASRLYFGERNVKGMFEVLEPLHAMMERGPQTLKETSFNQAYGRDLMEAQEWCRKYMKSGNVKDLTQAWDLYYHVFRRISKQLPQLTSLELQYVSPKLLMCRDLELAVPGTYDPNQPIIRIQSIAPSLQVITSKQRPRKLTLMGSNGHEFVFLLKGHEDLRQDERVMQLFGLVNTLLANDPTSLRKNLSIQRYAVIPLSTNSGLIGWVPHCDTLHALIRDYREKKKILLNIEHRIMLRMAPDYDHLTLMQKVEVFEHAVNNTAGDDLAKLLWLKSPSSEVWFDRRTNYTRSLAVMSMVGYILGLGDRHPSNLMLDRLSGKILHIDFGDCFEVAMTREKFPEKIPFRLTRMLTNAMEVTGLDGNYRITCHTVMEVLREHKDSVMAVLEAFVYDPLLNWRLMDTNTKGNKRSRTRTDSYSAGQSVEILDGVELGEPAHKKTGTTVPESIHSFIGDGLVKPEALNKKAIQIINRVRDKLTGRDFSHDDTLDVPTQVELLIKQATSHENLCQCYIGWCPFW

SMILES	pIC50 ([2]; read-out: PI3K γ IC50)	pIC50 ([3]; read-out: PI3K α IC50)	pIC50 ([5]; read-out: MTORC IC50)	pIC50 ([6]; read-out: PI3K δ IC50)	pIC50 [2, 10]	pIC50 [3, 11]	pIC50 ([5]; in vitro, read-out: MTORC IC50)	further results
Nc1nc2cc(-c3ccc4ncc(N5CCOCC5)nc4c3)ccc2o1 [compound 64]	> 7.00	> 7.00	> 5.00	–	–	–	–	pIC50 ([1]; read-out: PI3K β IC50): > 6.00; pIC50 [4, 7]: > 5.00
N#Cc1cnc2ccc(-c3ccc4oc(N)nc4c3)cc2c1-c1ccncc1 [compound 46]	> 7.00	> 7.00	> 7.00	> 7.00	–	–	–	–
Nc1nc2cc(-c3ccc4ncc(N5CC(N6CCN(C7CC7)CC6)C5)nc4c3)ccc2o1 [compound 313]	–	–	–	–	> 5.00	> 7.00	> 5.00	pIC50 [6, 8]: > 5.00; pIC50 [1, 9]: > 5.00
Nc1nc2cc(-c3ccc4ncc(-c5ccnc(N6CCOCC6)c5)n4c3)ccc2o1 [compound 52]	> 7.00	> 7.00	> 5.00	> 7.00	–	–	–	–
CC(=O)N1CCC(Nc2ncnc3ccc(-c4ccc5oc(N)nc5c4)cc23)CC1 [compound 60]	> 7.00	> 7.00	> 6.00	> 6.00	–	–	–	pIC50 ([1]; read-out: PI3K β IC50): > 5.00
Nc1nc2cc(-c3ccc4ncc(N5CC(N6CCOCC6)C5)nc4c3)ccc2o1 [compound 273]	–	–	–	–	> 5.00	> 7.00	> 6.00	pIC50 [4, 12]: > 6.00
Nc1nc2cc(-c3ccc4nccn4c3)ccc2o1 [compound 40]	> 5.00	> 5.00	> 5.00	–	–	–	–	–
Nc1nc2cc(-c3ccc4ncc(N5CC(N6CC[C@@H](O)C6)C5)nc4c3)ccc2o1 [compound 315]	–	–	–	–	> 5.00	> 7.00	> 6.00	pIC50 [6, 8]: > 5.00; pIC50 [1, 9]: > 5.00
CC(C)N1CCC(n2cnc3ccc(-c4ccc5oc(N)nc5c4)cc3c2=O)CC1 [compound 74]	> 5.00	> 7.00	> 5.00	–	–	–	–	pIC50 ([1]; read-out: PI3K β IC50): > 5.00; pIC50 [4, 7]: > 5.00
Nc1nc2cc(-c3ccc4ncc(N5CCC(n6ccnc6)CC5)nc4c3)ccc2o1 [compound 345]	–	–	–	–	> 6.00	> 7.00	> 5.00	pIC50 [6, 8]: > 6.00; pIC50 [1, 9]: > 6.00
COc1ncc(-c2ccc3ncc(C(=O)N4CCOCC4)n3c2)cc1NS(=O)(=O)c1ccc(F)cc1F [compound 417]	–	–	–	–	–	–	–	pIC50 ([6]; read-out: PI3K δ In Vitro IC50): > 7.00; pIC50 ([1]; read-out: PI3K β In Vitro IC50): > 7.00; pIC50 ([2]; read-out: PI3K γ In Vitro IC50): > 7.00; pIC50 ([3]; read-out: PI3K α In Vitro IC50): > 7.00; pIC50 ([5]; read-out: MTORC In Vitro IC50): > 6.00
N#Cc1cnc2ccc(-c3ccc4oc(N)nc4c3)cc2c1 [compound 93]	> 6.00	> 6.00	> 5.00	–	–	–	–	–
CC(C)Oc1nc(-c2ccc3oc(N)nc3c2)cnc1N [compound 237]	–	–	–	–	> 5.00	> 5.00	> 6.00	pIC50 [1, 9]: > 5.00
Nc1nc2cc(-c3ccc4ncc(-c5cccnc5)nc4c3)ccc2o1 [compound 76]	> 6.00	> 7.00	> 5.00	–	–	–	–	pIC50 [4, 7]: > 5.00
CN1CCN(C2CN(C(=O)c3cnc4ccc(-c5ccc6oc(N)nc6c5)cn34)C2)CC1 [compound 303]	–	–	–	–	–	> 7.00	> 5.00	pIC50 [6, 8]: > 5.00; pIC50 [4, 12]: > 6.00
Cn1cc(-c2ccnc3ccc(-c4ccc5oc(N)nc5c4)cc23)cn1 [compound 26]	> 7.00	> 7.00	> 6.00	> 7.00	–	–	–	–
Nc1nc2cc(-c3ccc4ncc(N5CCC(O)CC5)nc4c3)ccc2o1 [compound 99]	> 6.00	> 7.00	–	> 6.00	–	–	–	pIC50 ([1]; read-out: PI3K β IC50): > 5.00; pIC50 [4, 7]: > 5.00
Nc1ccc2cc(-c3ccc4nccc(-c5ccncc5)c4c3)ccc2n1 [compound 5]	> 6.00	> 6.00	> 6.00	> 5.00	–	–	–	–
CC(C)N1CCN(C(=O)C2CN(c3cnc4ccc(-c5ccc6oc(N)nc6c5)cc4n3)C2)CC1 [compound 285]	–	–	–	–	> 6.00	> 7.00	–	pIC50 [6, 8]: > 6.00; pIC50 [1, 9]: > 5.00; pIC50 [4, 12]: > 6.00
C[C@H]1CN(C2CN(C(=O)c3cnc4ccc(-c5ccc6oc(N)nc6c5)cn34)C2)CCN1 [compound 510]	–	–	–	–	–	–	–	pIC50 ([6]; read-out: PI3K δ In Vitro IC50): > 6.00; pIC50 ([1]; read-out: PI3K β In Vitro IC50): > 5.00; pIC50 ([2]; read-out: PI3K γ In Vitro IC50): > 5.00; pIC50 ([3]; read-out: PI3K α In Vitro IC50): > 7.00; pIC50 ([4]; PC3, read-out: PC3 proliferation In Vitro IC50): > 5.00
CN(C)[C@@H]1CCN(c2cnc3ccc(-c4ccc5oc(N)nc5c4)cc3n2)C1 [compound 378]	–	–	–	–	> 5.00	> 7.00	> 6.00	pIC50 [6, 8]: > 5.00; pIC50 [1, 9]: > 7.00
Cc1nc2ccc(-c3ccc4oc(N)nc4c3)nn2c1-c1ccncc1 [compound 56]	> 7.00	> 7.00	> 6.00	–	–	–	–	pIC50 ([1]; read-out: PI3K β IC50): > 6.00; pIC50 [4, 7]: > 5.00
CC(N)C(=O)N1CCN(c2cnc3ccc(-c4ccc5oc(N)nc5c4)cc3n2)CC1 (stereo not shown) [compound 134]	> 5.00	> 7.00	–	> 6.00	–	–	–	pIC50 ([1]; read-out: PI3K β IC50): > 6.00; pIC50 [4, 7]: > 6.00
